Assay results published in patent US8524744B2, “Arylamine ketones, their preparation methods, the pharmaceutical composition containing them and their use” (Institute of Mataria Medica, Chinese Academy of Medical …, priority 2004, dated 2013).
Where a name gives a salt, the structure may show the parent alone.

What was measured:
[1] = tested on: polymorphonuclear leucocytes from rat pleural cavity; experiment: release of β-glucuronidase by polymorphonuclear leucocytes from rat pleural cavity in vitro (PAF as irritant); format: cell-based
Method: 1% carrageenan was injected into the right pleural cavity of Wistar rat to induce polymorphonuclear leucocytes. The cells was suspended in Dulbecoo's buffer at the concentration of 2.5×10^6 cells·ml^1. The fluid containing the compound or solvent and 250 μl of cells suspension were added in test tube and incubated in 37° C. waterbath for 15 min. Then 2.5 μl of cytochalasin B (1×10^−3 mol·L^−1) was added and the reaction was continued for 5 min. Then 2.5 μl of PAF (1×10^−4 mol·L^−1) was added and for another 5 min. The test tubes were put into ice bath to stop the reaction. The supernatant was isolated and used as the β-glucuronidase release fluid. 25 μl of the enzyme fluid, 25 μl of phenolphthalein-glucuronic acid (2.5 mmol·L^−1) and 100 μl of acetic acid buffer (0.1 mol·L^−1) were added into each well of 96-well plate which was placed into incubater and kept at 37° C.3 for 18 hr. 150 μl of NaOH (0.3 mol·L^−1) was added in each well to cease the reaction and the optical density was read at 550 nm.

[2] = Dose 1 × 10^−5 mol · L^−1, Irritant 1 × 10^−6 mol · L^−1
[3] = Dose 2 × 10^−6 mol · L^−1, Irritant 1 × 10^−7 mol · L^−1
[4] = Dose 1 × 10^−5 mol · L^−1, Irritant 2 × 10^−7 mol · L^−1
[5] = Dose 1 × 10^−4 mol · L^−1, Irritant 2 × 10^−7 mol · L^−1
[6] = Dose 1 × 10^−5 mol · L^−1, Irritant 1 × 10^−7 mol · L^−1

Row | Molecule | Inhibition (%) of β-glucuronidase release [1, 2] [%] | further results
1 | CCCOc1ccc(C=CC(=O)CCN2CCC(Cc3ccccc3)CC2)cc1.Cl [Compound 22b, 5-[(4-Benzyl)piperidyl]-1-(4-propoxyphenyl)-1-penten-3-one hydrochloride] | 41.79 | –
2 | CCOC(=O)N1CCN(CCC(=O)C=Cc2ccc(C#N)cc2)CC1.Cl [Compound 34a, 5-[(N4-Ethoxycarbonyl)piperazyl]-1-(4-cyanophenyl)-1-penten-3-one hydrochloride] | – | Inhibition (%) of β-glucuronidase release [1, 3]: 121.34%
3 | CCOC(=O)C1CCN(CCC(=O)/C=C/c2ccc(Cl)cc2)CC1 (as salt: hydrochloride) [Compound 3, 5-[(4-Ethoxycarbonyl)piperidyl]-1-(4-chlorophenyl)-1-penten-3-one hydrochloride] | – | melting point: 172 to 174 °C
4 | Cc1ccc(C=CC(=O)CCN2CCC(Cc3ccccc3)CC2)cc1.Cl [Compound 19, 5-[(4-benzyl)piperidyl]-1-(4-methylphenyl)-1-penten-3-one hydrochloride] | – | Inhibition (%) of β-glucuronidase release [1, 4]: 79.01%
5 | COc1ccc(C=CC(=O)CCN2CC(C)OC(C)C2)cc1.Cl (stereo not drawn) [Compound 39c, 5-(2,6-Dimethylmorpholinyl)-1-(4-methoxyphenyl)-1-penten-3-one hydrochloride] | 28.66 | –
6 | 5-[(N4-Benzyl)piperazyl]-1-(3,4-dimethoxyphenyl)-1-penten-3-one hydrochloride [Compound 48] | 25.87 | –
7 | CN1CCN(CCC(=O)C=Cc2ccc3c(c2)OCO3)CC1.Cl [Compound 52, 5-[(N4-Methyl)piperazyl]-1-(3,4-methylenedioxyphenyl)-1-penten-3-one hydrochloride] | – | Inhibition (%) of β-glucuronidase release [1, 5]: 31.2%
8 | 5-[(N4-Ethoxycarbonyl)piperazyl]-1-(4-trifluoromethylphenyl)-1-penten-3-one hydrochloride [Compound 29] | 22.22 | –
9 | CCOC(=O)N1CCN(CCC(=O)C=Cc2cc(OC)c(OC)c(OC)c2)CC1.Cl [Compound 28, 5-[(N4-Ethoxycarbonyl)piperazyl]-1-(3,4,5-trimethoxy)phenyl-1-penten-3-one hydrochloride] | – | Inhibition (%) of β-glucuronidase release [1, 5]: 21.8%
10 | CCOC(=O)N1CCN(CCC(=O)C=Cc2ccc3c(c2)OCO3)CC1.Cl [Compound 32, 5-[(N4-Ethoxycarbonyl)piperazyl]-1-(3,4-methylenedioxyphenyl)-1-penten-3-one hydrochloride] | – | Inhibition (%) of β-glucuronidase release [1, 5]: 46.1%
11 | Cl.O=C(C=Cc1ccc2c(c1)OCO2)CCN1CCN(Cc2ccccc2)CC1 [Compound 51, 5-[(N4-Benzyl)piperazyl]-1-(3,4-methylenedioxyphenyl)-1-penten-3-one hydrochloride] | – | Inhibition (%) of β-glucuronidase release [1, 5]: 55.1%
12 | Cl.O=C(C=Cc1ccc(F)cc1)CCN1CCC(Cc2ccccc2)CC1 [Compound 17, 5-[(4-Benzyl)piperidyl]-1-(4-fluorophenyl)-1-penten-3-one hydrochloride] | 37.64 | –
13 | CCOc1cc(C=CC(=O)CCN2CCN(Cc3ccc4c(c3)OCO4)CC2)ccc1OC.Cl [Compound 55, 5-[N4-(3,4-Methylenedioxy(benzyl)piperazyl)]-1-(3-ethoxy-4-methoxy-phenyl)-1-penten-3-one hydrochloride] | 27.24 | –
14 | CCOC(=O)C1CCN(CCC(=O)C=Cc2cc(OC)c(OC)c(OC)c2)CC1.Cl [Compound 6, 5-[(4-Ethoxycarbonyl)piperidyl]-1-(3,4,5-trimethoxyphenyl)-1-penten-3-one hydrochloride] | 39.53 | –
15 | CCOC(=O)N1CCN(CCC(=O)C=Cc2ccc(Br)cc2)CC1.Cl [Compound 30, 5-[(N4-Ethoxycarbonyl)piperazyl]-1-(4-bromophenyl)-1-penten-3-one hydrochloride] | 23.54 | –
16 | COc1ccccc1N1CCN(CCC(=O)C=Cc2ccc(Cl)cc2)CC1.Cl [Compound 58] | 21.31 | –
17 | CCOC(=O)C1CCN(CCC(=O)C=Cc2ccc(C#N)cc2)CC1.Cl [Compound 2, 5-[(4-Ethoxycarbonyl)piperidyl]-1-(4-cyanophenyl)-1-penten-3-one hydrochloride] | – | Inhibition (%) of β-glucuronidase release [1, 3]: 126.36%
18 | CCOC(=O)C1CCCN(CCC(=O)C=Cc2ccc(Cl)cc2)C1.Cl (stereo not drawn) [Compound 13, 5-[(3-Ethoxycarbonyl)piperidyl]-1-(4-chloro)phenyl-1-penten-3-one hydrochloride] | 20.56 | –

Row | Molecule | Inhibition (%) of β-glucuronidase release [1, 2] [%] | further results
19 | CCOC(=O)C1CCN(CCC(=O)C=Cc2ccc(O)c(OC)c2)CC1.Cl [Compound 8, 5-[(4-Ethoxycarbonyl)piperidyl]-1-(3-methoxy-4-hydroxyphenyl)-1-penten-3-one hydrochloride] | – | Inhibition (%) of β-glucuronidase release [1, 6]: 158.42%
20 | 5-[(4-Ethoxycarbonyl)piperidyl]-1-(3,4-dimethoxyphenyl)-1-penten-3-one hydrochloride [Compound 4] | 28.05 | –
21 | Cl.O=C(C=Cc1ccc(Cl)cc1Cl)CCN1CCC(Cc2ccccc2)CC1 [Compound 23, 5-[(4-Benzyl)piperidyl]-1-(2,4-dichlorophenyl)-1-penten-3-one hydrochloride] | 32.27 | –
22 | Cl.O=C(C=Cc1ccc(C(F)(F)F)cc1)CCN1CCN(Cc2ccccc2)CC1 [Compound 44b, 5-[(N4-Benzyl)piperazyl]-1-(4-trifluoromethylphenyl)-1-penten-3-one hydrochloride] | – | Inhibition (%) of β-glucuronidase release [1, 4]: 57.93%
23 | CCOC(=O)C1CCCN(CCC(=O)C=Cc2ccc(OC)c(OCC)c2)C1.Cl (stereo not drawn) [Compound 12, 5-[(3-Ethoxycarbonyl)piperidyl]-1-(3-ethoxy-4-methoxyphenyl)-1-penten-3-one hydrochloride] | – | Inhibition (%) of β-glucuronidase release [1, 6]: 181.48%
24 | CC1CN(CCC(=O)C=Cc2ccc(Br)cc2)CC(C)O1.Cl (stereo not drawn) [Compound 39b, 5-(2,6-Dimethylmorpholinyl)-1-(4-bromophenyl)-1-penten-3-one hydrochloride] | 40.48 | –
25 | 5-[N4-(3,4-Methylenedioxy(benzyl)piperazyl)]-1-(3,4,5-trimethoxy-phenyl)-1-penten-3-one hydrochloride [Compound 54] | 65.88 | –
26 | CCCCOc1ccc(C=CC(=O)CCN2CCC(Cc3ccccc3)CC2)cc1.Cl [Compound 22, 5-[(4-Benzyl)piperidyl]-1-(4-butoxyphenyl)-1-penten-3-one hydrochloride] | 69.00 | –
27 | CCOC(=O)N1CCN(CCC(=O)C=Cc2ccc(O)cc2)CC1.Cl [Compound 24, 5-[(N4-Ethoxycarbonyl)piperazyl]-1-(4-hydroxyphenyl)-1-penten-3-one hydrochloride] | – | Inhibition (%) of β-glucuronidase release [1, 6]: 120.85%
28 | Cl.O=C(C=Cc1ccc(F)cc1)CCN1CCN(Cc2ccccc2)CC1 [Compound 44a, 5-[(N4-Benzyl)piperazyl]-1-(4-fluorophenyl)-1-penten-3-one hydrochloride] | – | Inhibition (%) of β-glucuronidase release [1, 4]: 52.46%
29 | CCOC(=O)C1CCN(CCC(=O)C=Cc2ccc(O)cc2)CC1.Cl [Compound 1, 5-[(4-Ethoxycarbonyl)piperidyl]-1-(4-hydroxyphenyl)-1-penten-3-one hydrochloride] | – | Inhibition (%) of β-glucuronidase release ([1]; Dose 1 × 10^−5 mol · L^−1, Irritant 5 × 10^−7 mol · L^−1): 97.87%
30 | CCOC(=O)C1CCN(CCC(=O)C=Cc2ccc(OCC)c(OC)c2)CC1.Cl [Compound 5, 5-[(4-Ethoxycarbonyl)piperidyl]-1-(3-methoxy-4-ethoxyphenyl)-1-penten-3-one hydrochloride] | 45.34 | –
31 | CCOC(=O)N1CCN(CCC(=O)C=Cc2ccc(OC)cc2)CC1.Cl [Compound 34d, 5-[(N4-Ethoxycarbonyl)piperazyl]-1-(4-methoxyphenyl)-1-penten-3-one hydrochloride] | 62.64 | –
32 | CC(CN1CCN(Cc2ccc3c(c2)OCO3)CC1)C(=O)C=Cc1ccc(Cl)cc1.Cl (stereo not drawn) [Compound 53, 5-[N4-(3,4-Methylenedioxy(benzyl)piperazyl)]-1-(4-chlorophenyl)-1-penten-4-methyl-3-one hydrochloride] | 37.82 | –
33 | CCOC(=O)C1CCCN(CCC(=O)C=Cc2ccc3c(c2)OCO3)C1.Cl (stereo not drawn) [Compound 15, 5-[(3-Ethoxycarbonyl)piperidyl]-1-(3,4-methylenedioxyphenyl)-1-penten-3-one hydrochloride] | – | Inhibition (%) of β-glucuronidase release [1, 6]: 141.17%
34 | CCOC(=O)C1CCCN(CCC(=O)C=Cc2ccc(OC)c(O)c2)C1.Cl (stereo not drawn) [Compound 14, 5-[(3-Ethoxycarbonyl)piperidyl]-1-(3-hydroxy-4-methoxyphenyl)-1-penten-3-one hydrochloride] | 36.65 | –
35 | CCOC(=O)C1CCN(CCC(=O)C=Cc2ccc(Cl)cc2Cl)CC1.Cl [Compound 10, 5-[(4-Ethoxycarbonyl)piperidyl]-1-(2,4-dichlorophenyl)-1-penten-3-one hydrochloride] | 51.07 | –
36 | COc1ccc(C=CC(=O)CCN2CCN(Cc3ccccc3)CC2)cc1.Cl [Compound 49, 5-[(N4-Benzyl)piperazyl]-1-(4-methoxyphenyl)-1-penten-3-one hydrochloride] | 43.19 | –
